Results reported in patent US7968526B2, “Antisense oligonucleotides directed to ribonucleotide reductase R2 and uses thereof in the treatment of cancer” (Lorus Therapeutics Inc., priority 2003, dated 2011).

Assays:
[1] = Tissue distribution in the rat (CE method); assay type: in vivo
Experimental: (§1) The toxicokinetics and tissue distribution of SEQ ID NO:1 (and related oligonucleotide metabolites obtained from exonuclease-mediated chain shortening) were determined in rats and monkeys. In addition to investigating the pharmacokinetics and tissue distribution of SEQ ID NO:1, the purpose of the studies was to correlate adverse effects in the animal studies to the concentrations of SEQ ID NO:1 (and metabolites) in tissue and blood. A capillary electrophoresis (CE) method was used to measure the concentrations of SEQ ID NO:1 (and metabolites) in plasma and tissues.
The concentrations of SEQ ID NO:1 (and related n+1, n−1 to n−15 oligonucleotide metabolites) in the following rat and monkey tissues were measured by a validated CE method (Southwest Bio-Labs, Inc.): kidney, liver, spleen, heart, lung, bone marrow (rat), lymph nodes (monkey) and brain tissues. The tissue samples were collected from the designated animals as described in the 21-day toxicity studies: rats, administered bolus intravenous injections of SEQ ID NO:1 every other day at 2, 10, or 50 mg/kg; and monkeys administered SEQ ID NO:1 by continuous intravenous infusion at 2, 10, or 50 mg/kg/day.

[2] = Pharmacokinetics in the monkey, 21 day continuous intravenous infusion; assay type: in vivo
Experimental: as §1
SEQ ID NO:1 was administered to monkeys by continuous intravenous infusion for 21 days followed by a 21-day recovery period. Twenty-eight monkeys were administered one of the following dose levels; vehicle control, 2, 10, or 50 mg/kg/day (24.6, 123, and 615 mg/m^2/day). Toxicokinetic samples were collected prior to the initiation of infusion, approximately 8, 24, 48, and 96 hours following the start of infusion, and on Day 20 prior to the change in dose-syringes.

[3] = 10 mg/kg bolus i.v. every other day, 48 hrs post first dose
[4] = 50 mg/kg bolus i.v. every other day, 4 hrs post first dose
[5] = 50 mg/kg bolus i.v. every other day, 4 hrs post last dose
[6] = 50 mg/kg bolus i.v. every other day, 48 hrs post first dose
[7] = 10 mg/kg/day continuous i.v. infusion 21 days
[8] = 50 mg/kg/day continuous i.v. infusion 21 days

Question: With “5′-GGCTAAATCGCTCCACCAAG-3′ (all phosphorothioate, sugars by position and methylation of C not given here) [SEQ ID NO: 1, fully phosphorothioated antisense oligonucleotide that hybridizes to the coding region of R2 mRNA]” as the substance, how does the “Mean Concentration total metabolites (n + 1 through n − 13), Spleen” value (“Mean Concentration total metabolites … Spleen” below) ([1]; 10 mg/kg bolus i.v. every other day, 4 hrs post last dose) read?
Answer: 13.5 µg/g

Question: What about the “Mean Concentration SEQ ID NO: 1, Bone Marrow” value [1, 3] of the same substance?
Answer: BDL (below detectable limits (1 μg/g rat; 0.2 μg/g monkey))

Question: And the “Mean Concentration SEQ ID NO: 1, Brain” value [1, 3]?
Answer: BDL (below detectable limits (1 μg/g rat; 0.2 μg/g monkey))

Question: And the “Mean Concentration SEQ ID NO: 1, Heart” value [1, 3]?
Answer: BDL (below detectable limits (1 μg/g rat; 0.2 μg/g monkey))

Question: What about the “Mean Concentration SEQ ID NO: 1, Kidney” value [1, 3] of the same substance?
Answer: 13.3 µg/g

Question: And the “Mean Concentration SEQ ID NO: 1, Liver” value [1, 3]?
Answer: 4.7 µg/g

Question: What about the “Mean Concentration SEQ ID NO: 1, Lung” value [1, 3] of the same substance?
Answer: BDL (below detectable limits (1 μg/g rat; 0.2 μg/g monkey))

Question: What about the “Mean Concentration SEQ ID NO: 1, Spleen” value [1, 3] of the same substance?
Answer: BDL (below detectable limits (1 μg/g rat; 0.2 μg/g monkey))

Question: And the “Mean Concentration total metabolites (n + 1 through n − 13), Bone Marrow” value [1, 3]?
Answer: BDL (below detectable limits (1 μg/g rat; 0.2 μg/g monkey))

Question: What about the “Mean Concentration total metabolites (n + 1 through n − 13), Brain” value (shortened to “Mean Concentration total metabolites … Brain”) [1, 3] of the same substance?
Answer: BDL (below detectable limits (1 μg/g rat; 0.2 μg/g monkey))

Question: And the “Mean Concentration total metabolites (n + 1 through n − 13), Heart” value (shortened to “Mean Concentration total metabolites … Heart”) [1, 3]?
Answer: BDL (below detectable limits (1 μg/g rat; 0.2 μg/g monkey))

Question: And the “Mean Concentration total metabolites (n + 1 through n − 13), Kidney” value (shortened to “Mean Concentration total metabolites … Kidney”) [1, 3]?
Answer: 68.4 µg/g

Question: What about the “Mean Concentration total metabolites (n + 1 through n − 13), Liver” value (“Mean Concentration total metabolites … Liver” below) [1, 3] of the same substance?
Answer: 8.3 µg/g

Question: What about the “Mean Concentration total metabolites (n + 1 through n − 13), Lung” value (“Mean Concentration total metabolites … Lung” for short) [1, 3] of the same substance?
Answer: BDL (below detectable limits (1 μg/g rat; 0.2 μg/g monkey))

Question: And the “Mean Concentration total metabolites … Spleen” value [1, 3]?
Answer: BDL (below detectable limits (1 μg/g rat; 0.2 μg/g monkey))

Question: And the “Mean Concentration SEQ ID NO: 1, Bone Marrow” value [1, 4]?
Answer: 13.2 µg/g

Question: What about the “Mean Concentration SEQ ID NO: 1, Brain” value [1, 4] of the same substance?
Answer: BDL (below detectable limits (1 μg/g rat; 0.2 μg/g monkey))

Question: What about the “Mean Concentration SEQ ID NO: 1, Heart” value [1, 4] of the same substance?
Answer: 14.5 µg/g

Question: And the “Mean Concentration SEQ ID NO: 1, Kidney” value [1, 4]?
Answer: 86.1 µg/g

Question: And the “Mean Concentration SEQ ID NO: 1, Liver” value [1, 4]?
Answer: 51.9 µg/g

Question: And the “Mean Concentration SEQ ID NO: 1, Lung” value [1, 4]?
Answer: 13.3 µg/g

Question: And the “Mean Concentration SEQ ID NO: 1, Spleen” value [1, 4]?
Answer: 32.7 µg/g

Question: What about the “Mean Concentration total metabolites (n + 1 through n − 13), Bone Marrow” value [1, 4] of the same substance?
Answer: 19.5 µg/g

Question: And the “Mean Concentration total metabolites … Brain” value [1, 4]?
Answer: BDL (below detectable limits (1 μg/g rat; 0.2 μg/g monkey))

Question: What about the “Mean Concentration total metabolites … Heart” value [1, 4] of the same substance?
Answer: 13.0 µg/g

Question: What about the “Mean Concentration total metabolites … Kidney” value [1, 4] of the same substance?
Answer: 187 µg/g

Question: What about the “Mean Concentration total metabolites … Liver” value [1, 4] of the same substance?
Answer: 79.9 µg/g

Question: And the “Mean Concentration total metabolites … Lung” value [1, 4]?
Answer: 21.8 µg/g

Question: What about the “Mean Concentration total metabolites … Spleen” value [1, 4] of the same substance?
Answer: 19.9 µg/g

Question: And the “Mean Concentration SEQ ID NO: 1, Bone Marrow” value [1, 5]?
Answer: 29.9 µg/g

Question: What about the “Mean Concentration SEQ ID NO: 1, Brain” value [1, 5] of the same substance?
Answer: BDL (below detectable limits (1 μg/g rat; 0.2 μg/g monkey))

Question: What about the “Mean Concentration SEQ ID NO: 1, Heart” value [1, 5] of the same substance?
Answer: 20.8 µg/g

Question: What about the “Mean Concentration SEQ ID NO: 1, Kidney” value [1, 5] of the same substance?
Answer: 286.6 µg/g

Question: What about the “Mean Concentration SEQ ID NO: 1, Liver” value [1, 5] of the same substance?
Answer: 91.6 µg/g

Question: What about the “Mean Concentration SEQ ID NO: 1, Lung” value [1, 5] of the same substance?
Answer: 18.2 µg/g

Question: And the “Mean Concentration SEQ ID NO: 1, Spleen” value [1, 5]?
Answer: 18.4 µg/g

Question: What about the “Mean Concentration total metabolites (n + 1 through n − 13), Bone Marrow” value [1, 5] of the same substance?
Answer: 67.4 µg/g

Question: And the “Mean Concentration total metabolites … Brain” value [1, 5]?
Answer: BDL (below detectable limits (1 μg/g rat; 0.2 μg/g monkey))

Question: What about the “Mean Concentration total metabolites … Heart” value [1, 5] of the same substance?
Answer: 42.5 µg/g

Question: And the “Mean Concentration total metabolites … Kidney” value [1, 5]?
Answer: 1373.6 µg/g

Question: What about the “Mean Concentration total metabolites … Liver” value [1, 5] of the same substance?
Answer: 279.7 µg/g

Question: And the “Mean Concentration total metabolites … Lung” value [1, 5]?
Answer: 30.0 µg/g

Question: What about the “Mean Concentration total metabolites … Spleen” value [1, 5] of the same substance?
Answer: 60.8 µg/g

Question: What about the “Mean Concentration SEQ ID NO: 1, Bone Marrow” value [1, 6] of the same substance?
Answer: 2.8 µg/g

Question: What about the “Mean Concentration SEQ ID NO: 1, Brain” value [1, 6] of the same substance?
Answer: BDL (below detectable limits (1 μg/g rat; 0.2 μg/g monkey))

Question: And the “Mean Concentration SEQ ID NO: 1, Heart” value [1, 6]?
Answer: 2.5 µg/g

Question: What about the “Mean Concentration SEQ ID NO: 1, Kidney” value [1, 6] of the same substance?
Answer: 48.2 µg/g

Question: And the “Mean Concentration SEQ ID NO: 1, Liver” value [1, 6]?
Answer: 19.8 µg/g

Question: And the “Mean Concentration SEQ ID NO: 1, Lung” value [1, 6]?
Answer: 2.1 µg/g

Question: And the “Mean Concentration SEQ ID NO: 1, Spleen” value [1, 6]?
Answer: 1.4 µg/g

Question: What about the “Mean Concentration total metabolites (n + 1 through n − 13), Bone Marrow” value [1, 6] of the same substance?
Answer: 4.4 µg/g

Question: What about the “Mean Concentration total metabolites … Brain” value [1, 6] of the same substance?
Answer: BDL (below detectable limits (1 μg/g rat; 0.2 μg/g monkey))

Question: And the “Mean Concentration total metabolites … Heart” value [1, 6]?
Answer: 7.2 µg/g

Question: And the “Mean Concentration total metabolites … Kidney” value [1, 6]?
Answer: 287.6 µg/g

Question: What about the “Mean Concentration total metabolites … Liver” value [1, 6] of the same substance?
Answer: 68.7 µg/g

Question: What about the “Mean Concentration total metabolites … Lung” value [1, 6] of the same substance?
Answer: 3.8 µg/g

Question: And the “Mean Concentration total metabolites … Spleen” value [1, 6]?
Answer: 2.2 µg/g

Question: And the “Concentrations in the brain” value ([1]; lower limit for detection 1 μg/g)?
Answer: below the limits of detection

Question: And the Plasma concentrations ([2]; 2 mg/kg dose group)?
Answer: could not be detected

Question: And the “median Tmax” value ([2]; 10 mg/kg dose group)?
Answer: 20 days

Question: What about the Cl [2, 7] of the same substance?
Answer: 208 ± 52 mL/h/kg

Question: What about the Cmax [2, 7] of the same substance?
Answer: 2.94 µg/mL

Question: And the Css [2, 7]?
Answer: 2.10 ± 0.48 µg/mL

Question: And the “Tmax (mean)” value [2, 7]?
Answer: 13.5 days

Question: What about the “median Tmax” value ([2]; 50 mg/kg dose group) of the same substance?
Answer: 1 days

Question: What about the Cl [2, 8] of the same substance?
Answer: 130 ± 16 mL/h/kg

Question: And the Cmax [2, 8]?
Answer: 20.3 µg/mL

Question: What about the Css [2, 8] of the same substance?
Answer: 16.2 ± 2.2 µg/mL

Question: And the “Tmax (mean)” value [2, 8]?
Answer: 7.12 days

Question: And the “Time to steady state plasma concentration” value ([2]; continuous i.v. infusion)?
Answer: steady state by eight hours after dosing
